Results taken from article PMC7679387, “VZHE-039, a novel antisickling agent that prevents erythrocyte sickling under both hypoxic and anoxic conditions” (Scientific Reports, 2020).
Several values for one entry are separate records, joined by “and”; a condition that tells them apart may be missing. Equal entries are not always repeated.

Columns and labels:
[1] = target: T1, HbS (Homo sapiens, UniProt P69905); assay: Hb modification (HbS adduct formation) by cation-exchange HPLC of lysates from SS cells; assay type: cell-based; conditions: SS cells, 20% hematocrit, HPLC of hemolysates
T1 construct: whole blood suspensions from subjects with homozygous SCD (Hct of 20%); from tissue; host or cells: whole blood / red blood cells of patients with homozygous SS sickle cell disease; lysate for HPLC and OEC
T1 sequence (P69905 2-142): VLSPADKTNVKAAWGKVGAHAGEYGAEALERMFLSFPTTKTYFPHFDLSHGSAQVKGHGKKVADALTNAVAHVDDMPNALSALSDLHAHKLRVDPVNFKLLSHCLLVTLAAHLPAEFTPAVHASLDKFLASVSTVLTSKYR
T1 sequence (P68871 with tags, fused parts or gaps E7V partner): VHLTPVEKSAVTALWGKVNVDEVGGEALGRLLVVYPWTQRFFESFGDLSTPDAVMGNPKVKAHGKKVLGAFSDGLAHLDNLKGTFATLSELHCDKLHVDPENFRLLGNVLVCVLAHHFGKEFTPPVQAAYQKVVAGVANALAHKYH
Description: For our previously studied compounds (e.g., INN-312, TD-7, SAJ-310, INN-298) that incorporate methoxyPy substitution to vanillin analogs, we observed a significant increase in functional and biological activity as a result of increased protein interactions[31],[33],[35],[36]. We therefore expected similar effects for VZHE-039, which we tested by following VZHE-039 activity (measured by Hb adduct formation, P50-shift and RBC sickling inhibition) using SS blood. Briefly, we incubated 0.5, 1, and 2 mM concentrations of VZHE-039 with whole blood suspensions from subjects with homozygous SCD (Hct of 20%) under hypoxic conditions (2.5% O2/97.5% N2) at 37 °C for 2 h for expected peak adduct. Aliquot blood samples were drawn into a fixative (2% glutaraldehyde solution), and sickling was assessed by microscopy[31],[33],[35],[36]. Aliquot samples were also subjected to cation-exchange HPLC analyses to assess the degree of Hb modification to the high-affinity adduct form (Hb adduct formation), as well as standard O2 equilibrium curves (OEC) to assess P50-shifts using hemox analyzer[31],[33],[35],[36]. […] The improved potency of Voxelotor has been attributed to reduced binding stoichiometry, i.e. while Voxelotor binds Hb at a 1:1 ratio, VZHE-039 binds Hb at a 2:1 ratio. […] This observation, as will be discussed later is likely due to a meaningful contribution from the novel O2-independent antisickling activity as result of the strong contact with the αF-helix.
The effect of VZHE-039 on RBC sickling, Hb modification, and Hb oxygen equilibrium was studied utilizing samples from consented individuals with homozygous SCD following previous procedure. Briefly, blood suspended in Hemox buffer and supplemented with glucose and bovine serum albumin, to a final hematocrit of 20% were incubated under air in the absence or presence of 0.5 mM, 1 mM and 2 mM VZHE-039 at 37 °C for 1 h. This was followed by incubating the suspensions under hypoxic conditions (2.5% O2/97.5% N2) at 37 °C for 2 h. Aliquot samples were obtained and fixed with 2% glutaraldehyde solution without exposure to air, and then subjected to microscopic morphological analysis of bright field images (at × 40 magnification) of single layer cells on an Olympus BX40 microscope fitted with an Infinity 2 camera (Olympus), and the coupled Image Capture software. Leftover samples were washed in phosphate-buffer saline, and hemolyzed in hypotonic lysis buffer for subsequent Hb-modification and oxygen equilibrium analyses.
Finally, for the Hb adduct formation studies, the above clarified lysates were subjected to cation-exchange HPLC (Hitachi D-7000 Series, Hitachi Instruments, Inc., San Jose, CA), using a weak cation-exchange column (Poly CAT A: 30 mm × 4.6 mm, Poly LC, Inc., Columbia, MD). A commercial standard consisting of approximately equal amounts of composite HbF, HbA, HbS and HbC (Helena Laboratories, Beaumont, TX), was utilized as the reference for isotypes. The areas of new peaks, representing HbS adducts, were obtained, calculated as percentage fractions of total Hb area, and reported as levels of modified Hb.

[2] = target: T2, HbA (Homo sapiens, UniProt P69905); assay: In vitro time-dependent Hb oxygen equilibrium study using normal whole blood (tonometry); assay type: cell-based; conditions: 2 mM, Hct 30%, 37 °C, 1-24 h
T2 construct: fresh normal adult whole blood (Hct of 30%); from tissue; host or cells: normal adult whole blood (red blood cells)
T2 sequence (P69905 2-142 limits assumed): as the sequence (P69905 2-142) above
T2 sequence (P68871 2-147 partner limits assumed): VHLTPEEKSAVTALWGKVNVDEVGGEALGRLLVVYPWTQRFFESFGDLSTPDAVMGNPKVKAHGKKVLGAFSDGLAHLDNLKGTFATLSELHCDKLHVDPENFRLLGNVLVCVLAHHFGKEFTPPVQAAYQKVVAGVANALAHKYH
Description: The antisickling activity of aromatic aldehydes is dependent on Schiff-base interaction between the aldehyde moiety and the Hb αVal1 amines (Schiff-base adduct) and the increase in the protein affinity for oxygen[30]–[40]. […] To overcome this pharmacologic limitation, Tucaresol and Voxelotor, two potent antisickling agents utilized a ortho-hydroxyl moiety (relative to the aldehyde group) on the benzaldehyde ring to form intramolecular hydrogen-bond interaction with the aldehyde group to form hemiacetal-like moiety, which led to significant reduction in oxidative metabolism of the aldehyde[28],[50]. […] VZHE-039, however, incorporates this ortho-hydroxyl moiety on the benzene ring, which is expected to increase its oxidative metabolic stability. This was tested by incubating 2 mM of VZHE-039 (with vanillin and TD-7 as controls) with fresh normal adult whole blood (Hct of 30%) at 37 °C as a surrogate measure of oxidative metabolism. At defined time points (1, 4, 8, 12 and 24 h), aliquot samples were drawn, and subsequently analyzed for their P50-shifts relative to the initial P50 value, using three-point tonometry. In parallel, an untreated control sample was also assessed to control for any time-dependent, but drug-independent changes in P50 values. […] These findings confirm the importance of the ortho-hydroxyl group in aromatic aldehydes in preventing or reducing enzymatic metabolism of aldehyde in RBCs.
Normal whole blood samples (hematocrit 30%) in the absence (control) or presence of 2 mM concentration VZHE-039 (solubilized in DMSO) were incubated at 37 °C for 24 h with shaking (at 140 rpm). At 1, 4, 8, 12 and 24 h time intervals, aliquots of this mixture were removed and then subjected to OEC analysis using tonometry as previously described. Vanillin and TD-7 were used as positive controls, while DMSO was tested as negative control. Briefly, the compound-treated blood samples were incubated in IL 237 tonometers (Instrumentation Laboratories, Inc. Lexington, MA) for approximately 10 min at 37 °C, and allowed to equilibrate at oxygen tensions 6, 20, and 40 mmHg. The samples were then aspirated into an ABL 700 Automated Blood Gas Analyzer (Radiometer) to determine the pH, partial pressure of CO2 (pCO2), partial pressure of oxygen (pO2), and Hb oxygen saturation values (SO2). The measured values of pO2 (mmHg) and SO2 at each pO2 value were then subjected to a non-linear regression analysis using the program Scientist (Micromath, Salt Lake City, UT) to estimate P50 as previously reported.

In the case of `O=Cc1c(O)cccc1OCc1cccc(CO)n1` [VZHE-039, 2-((6-(Hydroxymethyl)pyridin-2-yl)methoxy)-6-hydroxybenzaldehyde], the “Hb Modification” value ([1]; 0.5 mM) is reported as 38% and 38.0 ± 7.2%, the “Hb Modification” value ([1]; 1 mM) is reported as 72% and 72.6 ± 6.4% and the “Hb Modification” value ([1]; 2 mM) is reported as 97.4 ± 6.7%. The “Time course of P50-shift (in words)” value [2] was “sustained P50-shift throughout the entire 24-h experimental period”.
